Test results taken from ChEMBL document CHEMBL1129114, “Bioactive hydroxyethylene dipeptide isosteres with hydrophobic (P3-P1)-moieties. A novel strategy towards small non-peptide renin inhibitors” (Bioorg Med Chem Lett, 1996).

These molecules were tested against T1, Renin (Homo sapiens, UniProt P00797) (assay: In vitro binding affinity was tested against purified human renin at pH 7.2).
T1 sequence (P00797 whole entry): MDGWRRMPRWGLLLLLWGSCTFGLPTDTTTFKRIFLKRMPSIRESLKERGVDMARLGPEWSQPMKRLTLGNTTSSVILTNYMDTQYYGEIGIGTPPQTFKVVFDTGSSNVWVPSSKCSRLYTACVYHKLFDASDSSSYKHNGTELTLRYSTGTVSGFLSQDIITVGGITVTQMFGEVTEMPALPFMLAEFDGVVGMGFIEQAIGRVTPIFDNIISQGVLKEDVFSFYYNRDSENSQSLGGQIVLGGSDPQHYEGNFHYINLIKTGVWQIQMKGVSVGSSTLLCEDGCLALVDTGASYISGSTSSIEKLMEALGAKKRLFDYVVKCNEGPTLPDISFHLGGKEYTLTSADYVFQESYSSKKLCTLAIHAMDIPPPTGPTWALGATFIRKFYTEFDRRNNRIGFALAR

IC50 [µM] | SMILES
30 | CCCCNC(=O)[C@H](C)C[C@H](O)[C@@H](N)CC1CCCCC1
> 100 | CCCCNC(=O)[C@H](C)C[C@H](O)[C@@H](N)CC(C)C
58 | CCCCNC(=O)[C@H](C)C[C@H](O)[C@@H](N)CC(C)(C)CCc1cccc(CO)c1
2.1 | CCCCNC(=O)[C@H](C)C[C@H](O)[C@@H](N)CC(C)(C)CCCc1cccc2ccccc12
0.3 | CCCCNC(=O)[C@H](C)C[C@H](O)[C@@H](N)C[C@@H]1CCC[C@@H](CCCC(C)(C)C)C1
2.7 | CCCCNC(=O)[C@H](C)C[C@H](O)[C@@H](N)CC(CC)(CC)CCc1cccc2ccccc12
10 | CCCCNC(=O)[C@H](C)C[C@H](O)[C@@H](N)CC(C)(C)CCc1ccc(CO)c2ccccc12
13 | CCCCNC(=O)[C@H](C)C[C@H](O)[C@@H](N)Cc1cccc(CCCC(C)(C)C)c1
2.9 | CCCCNC(=O)[C@H](C)C[C@H](O)[C@@H](N)C[C@@H]1CCC[C@H](CCCC(C)(C)C)C1
3 | CCCCNC(=O)[C@H](C)C[C@H](O)[C@@H](N)CC(C)(C)CCc1ccc2ccccc2c1
79 | CCCCNC(=O)[C@H](C)C[C@H](O)[C@@H](N)CC(C)(C)CCc1ccc(CO)cc1
0.8 | CCCCNC(=O)[C@H](C)C[C@H](O)[C@@H](N)CC1CCCC(CCCC(C)(C)C)C1 (stereo partly specified)
32 | CCCCNC(=O)[C@H](C)C[C@H](O)[C@@H](N)Cc1ccc(OCc2ccccc2)cc1
3.7 | CCCCNC(=O)[C@H](C)C[C@H](O)[C@@H](N)CC(C)(C)CCCc1ccc2ccccc2c1
0.7 | CCCCNC(=O)[C@H](C)C[C@H](O)[C@@H](N)CC(C)(C)CCc1cccc2ccccc12
4.3 | CCCCNC(=O)[C@H](C)C[C@H](O)[C@@H](N)C[C@H]1CC[C@H](CCCC(C)(C)C)CC1
